Reference: patent publication US20110183978A1, “Phenylpyri(mi)dinylazoles” (Bayer CropScience AG, priority 2009, published 2011)
Counter-ions that a name gives are not always drawn. Like-named read-outs stand apart in the source and are kept apart here.

Key:
Pyricularia grisea = type: in vivo; conditions: 500 ppm; rice plants sprayed 24 hours before inoculation; scored after 6 days
[1] = determination of the log P values by HPLC on a reverse phase column (C18), EEC-Directive 79/831 Annex V.A8
Fusarium graminearum [2] = experiment: microbe, parasite or virus in culture; type: cell-based
Alternaria solani = experiment: Example M: in vivo test on Alternaria solani (leaf blotch disease/tomato/protective); conditions: 168 h, tomato, protective, 500 ppm active substance, assessed 7 days after inoculation, read-out: % Wirkungsgrad (activity level)
In short: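 Alternaria solani infection on tomato scored 7 days post-inoculation. Before inoculation, young plants received a protective spray at the stated application dose; formulation was compound mixed with N,N-dimethylformamide and emulsifier, water-diluted.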

Peronospora parasitica = experiment: Example A: in vivo test on Peronospora parasitica (downy mildew on white cabbage); conditions: Hyaloperonospora parasitica, 120 h, cabbage plants sprayed 24 hours before inoculation, scored after 5 days, read-out: % Wirkungsgrad
In short: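 Protective spray test: inoculation with 50,000 spores/ml P. parasitica suspension followed 24 h after compound application to cotyledon-stage cabbage (variety Eminence). Plants kept moist at about 20 °C for 5 days and then rated versus controls sprayed without active substance.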

Sphaerotheca fuliginea [3] = experiment: Example L: in vivo test on Sphaerotheca fuliginea (powdery mildew on cucumber/protective); conditions: Podosphaera fuliginea, 168 h, cucumber, protective, assessment 7 days after inoculation, read-out: % Wirkungsgrad
In short: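 Young cucumber plants sprayed at stated dosage with compound in DMF/alkylaryl polyglycol ether emulsifier diluted in water; inoculated with S. fuliginea spores one day later. Kept in greenhouse at 70% relative humidity, 23° C; protective activity assessed 7 days after inoculation.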

Puccinia recondita = experiment: Example F: in vivo test on Puccinia recondita (wheat brown rust); conditions: 240 h, wheat plants sprayed 24 hours before inoculation, scored after 10 days, read-out: % Wirkungsgrad
Protocol: In Vivo Test on Puccinia Recondita (Wheat Brown Rust) An aqueous suspension of the active substance was prepared by homogenization of a mixture of acetone/Tween/dimethyl sulphoxide and subsequent dilution with water to the desired concentration. Wheat plants (variety: Scipion) are sown in cultivation dishes on a peat-pozzolanic earth substrate (50/50) at 12° C. and sprayed at the first-leaf stage (10 cm size) with the aqueous suspension described above. As a control, plants are sprayed with an aqueous solution with no active substance. After 24 hours the plants are inoculated by spraying with an aqueous suspension of Puccinia recondita spores (100,000 spores per ml). The spores are derived from a 10 day-old infected wheat crop and are suspended in water with 2.5 ml/l Tween. […] After 10 days they are scored in comparison with the control plants.

Sphaerotheca fuliginea [4] = experiment: Example D: in vivo test on Sphaerotheca fuliginea (powdery mildew on cucumber); conditions: Podosphaera fuliginea, 288 h, cucumber plants sprayed 24 hours before inoculation, scored after 12 days, read-out: % Wirkungsgrad
In short: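 Scoring took place 12 days after spore inoculation (100,000 spores/ml, at ca. 20/25° C., 60/70% RH) and was made against plants sprayed without active substance. Inoculation followed by 24 hours a spray of water-diluted acetone/Tween/DMSO compound suspension onto Z10 cotyledon-stage cucumbers.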

Pyricularia oryzae = experiment: whole plant or invertebrate; type: in vivo; conditions: 120 h, read-out: % Activity level
Plasmopara viticola = experiment: Example N: in vivo test on Plasmopara viticola (downy mildew, vine/protective); conditions: 144 h, vine, protective, assessment 6 days after inoculation, read-out: % Wirkungsgrad
In short: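 Assessment of downy mildew on vines took place 6 days post-inoculation, after 1 day of moist incubation. Before infection, the young plants received a protective spray of compound emulsified with alkylaryl polyglycol ethers and diluted with water to the stated application rate.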

Venturia inaequalis = experiment: Example O: in vivo test on Venturia inaequalis (apple scab/protective); conditions: 240 h, protective, assessment 10 days after inoculation, read-out: % Wirkungsgrad
In short: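 Young plants received a preventive spray of compound formulated as an emulsifier-containing aqueous dilution at the given application rate, then were inoculated with apple scab fungus. Disease was scored 10 days post-inoculation.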

Septoria tritici = experiment: Example R: in vivo test on Septoria tritici (leaf blotch in wheat/protective); conditions: Zymoseptoria tritici, 504 h, wheat, protective, 1000 ppm active substance, assessed 21 days after inoculation, read-out: % Wirkungsgrad (activity level)
In short: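 Protective test: young wheat plants sprayed with compound in N,N-dimethylacetamide/alkylaryl polyglycol ether emulsifier diluted in water, dried, then inoculated with Septoria tritici spore suspension. Disease assessed 21 days after inoculation.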

[5] = tested on: Fusarium nivale (var. majus); experiment: whole plant or invertebrate; type: in vivo; conditions: Microdochium nivale, in Triticum aestivum, 120 h, read-out: % Wirkungsgrad (activity level)
Leptosphaeria nodorum = experiment: Example Q: in vivo test on Leptosphaeria nodorum (glume blotch in wheat/protective); conditions: Parastagonospora nodorum, 192 h, wheat, protective, assessment 8 days after inoculation, read-out: % Wirkungsgrad
In short: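 Protective test: young wheat plants sprayed with compound formulated in N,N-dimethylacetamide plus alkylaryl polyglycol ether emulsifier, diluted in water to the stated dose. After drying, plants inoculated with L. nodorum spore suspension; disease assessed 8 days post-inoculation.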

Botrytis cinerea = experiment: Example P: in vivo test on Botrytis cinerea (gray mould on bean/protective); conditions: 48 h, bean, protective, 250 ppm active substance, assessed 2 days after inoculation, read-out: % Wirkungsgrad (activity level)
In short: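 Infection blotch size on leaves was scored 2 days after placing 2 Botrytis-colonised agar pieces per leaf. Inoculation followed drying of a protective spray applied to young plants at the stated dosage. Spray was prepared by diluting compound with solvent and alkylaryl polyglycol ether emulsifier in water.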

Gibberella zeae = type: in vivo; conditions: 250 ppm; rice, protective; assessment 5 days after inoculation
Rhizoctonia solani = experiment: Example W: in vivo test on Rhizoctonia solani (sheath blight in rice/protective); conditions: 96 h, rice, protective, 250 ppm active substance, assessed 4 days after inoculation, read-out: % Activity level
In short: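 Young rice plants sprayed protectively with compound in acetone/alkylaryl polyglycol ether emulsion diluted in water at stated dosage. Inoculated with R. solani hyphae one day later; disease assessed 4 days post-inoculation.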

Fusarium proliferatum = experiment: Example I: production of fumonisin FB1 by Fusarium proliferatum (microtitre plates); type: cell-based; conditions: 120 h
Rhynchosporium secalis = experiment: Example S: in vivo test on Rhynchosporium secalis (leaf scald in barley/protective); conditions: 336 h, barley, protective, 1000 ppm active substance, assessed 14 days after inoculation, read-out: % Wirkungsgrad (activity level)
Protocol: Solvent: 49 parts by weight N,N-dimethylacetamide Emulsifier: 1 part by weight alkylaryl polyglycol ethers For the preparation of a suitable active substance preparation, 1 part by weight of active substance is mixed with the stated quantities of solvent and emulsifier and the concentrate is diluted to the desired concentration with water. For the testing for protective activity, young plants are sprayed with the active substance preparation at the stated application dosage. After drying of the spray coating, the plants are sprayed with spores with a spore suspension of Rhynchosporium secalis. […] 14 days after the inoculation, the assessment takes place.

Cochliobolus miyabeanus = experiment: Example X: in vivo test on Cochliobolus miyabeanus (brown spot disease, rice/protective); conditions: Bipolaris oryzae, 96 h, read-out: % Activity level
Fusarium graminearum [6] = experiment: whole plant or invertebrate; type: in vivo; conditions: in Hordeum vulgare, 120 h, read-out: % Wirkungsgrad (activity level)
Pythium ultimum = experiment: Example U: in vivo test on Pythium ultimum (root rot/damping off in cotton/seed treatment); conditions: 50 g/dt; cotton seed treatment; emergence counted after 7 days
Protocol: The test was performed under greenhouse conditions. Cotton seeds, treated with an active compound according to the invention or a combination of active compounds according to the invention were sown in 6*6 cm size vessels, in a mixture of steamed field earth and sand (1:1). The test compound/s were dissolved in N-methyl-2-pyrrolidone and diluted to the desired concentration with water. The plants were grown at 10° C. Perlite was inoculated with mycelium from Pythium ultimum. 1 mL of the infected perlite was distributed between the treated cotton seeds. […] The assessment was made by counting the emergence.

[7] = LogPA (logP of the stated pure compound or, in a mixture, of the main isomer, 1-substituted 3-aryl-1H-pyrazole)
[8] = 72 h, read-out: % Inhibition des Pilzwachstums bei 50 μM
[9] = 168 h, read-out: % Inhibition der DON/AcDON produktion bei 50 μM

With `CC(C)Cn1cc(-c2ccnc3c2C(C)(C)C(=O)N3C)c(-c2ccc(F)cc2)n1` [Compound 148] the “% Activity level” value (Pyricularia grisea) was 71% and the chromatographic logP (physchem; [7]) was 3.68.
Compound `CCC[CH2][Sn]([CH2]CCC)([CH2]CCC)[c]1c(-c2ccncc2)cnn1C1CCCCO1` (stereo not shown) [[XI-1], 4-[1-(Tetrahydro-2H-pyran-2-yl)-5-(tributylstannyl)-1H-pyrazol-4-yl]pyridine] has a chromatographic logP ([1]; pH 2.7) of 5.09.
For `CCOC(=O)Nc1cc(-c2cn(CC3CC3(Cl)Cl)nc2-c2ccc(F)cc2)ccn1` (stereo not shown) [Compound 264], the chromatographic logP [1] was 3.37, the inhibition at 50 µM (Fusarium graminearum [2]; [8]) was 17% and the inhibition at 50 µM (Fusarium graminearum [2]; [9]) was 99%.
For `CCOC(=O)Nc1cc(-c2cn(CC(F)F)nc2-c2ccc(F)cc2)ccn1` [Compound 241], the chromatographic logP [1] was 2.45 and the pest or weed control at 500 ppm (Alternaria solani) was 94%.
With `CCC(C)n1cc(-c2ccncc2)c(-c2ccc(F)cc2)n1` (stereo not shown) [Compound 91] the “% Activity level” value (Pyricularia grisea) was 75%, the pest or weed control at 500 ppm (Peronospora parasitica) was 89% and the pest or weed control at 500 ppm (Sphaerotheca fuliginea [3]) was 100%. For the same compound, the pest or weed control at 500 ppm (Alternaria solani) was 95%, the chromatographic logP (physchem; [7]) was 1.5 and the pest or weed control at 500 ppm (Puccinia recondita) was 94%. It also gave a pest or weed control at 500 ppm (Sphaerotheca fuliginea [4]) of 88%.
In the case of `Fc1ccc(-c2n[nH]cc2-c2ccncc2)cc1` [[IX-1], 4-[3-(4-Fluorophenyl)-1H-pyrazol-4-yl]pyridine hydrochloride], the chromatographic logP ([1]; pH 2.7) is reported as 0.65.
Compound `CCC(=O)Nc1cc(-c2cn(CC)nc2-c2ccc(F)cc2)ccn1` [Compound 198] has a pest or weed control at 250 ppm (Pyricularia oryzae) of 85%, a pest or weed control at 100 ppm (Plasmopara viticola) of 92% and a pest or weed control at 100 ppm (Venturia inaequalis) of 96%. The pest or weed control at 1000 ppm (Septoria tritici) was 100%, the pest or weed control at 1000 ppm [5] was 100% and the pest or weed control at 1000 ppm (Leptosphaeria nodorum) was 100%. For the same compound, the pest or weed control at 250 ppm (Botrytis cinerea) was 99%, the “% Activity level” value (Gibberella zeae) was 80% and the pest or weed control at 250 ppm (Rhizoctonia solani) was 88%. It also gave an inhibition at 50 µM (Fusarium proliferatum; Fusarium proliferatum growth, OD 620, 5 days, read-out: % Inhibition des Pilzwachstums bei 50 μM) of 99%, an inhibition at 50 µM (Fusarium proliferatum; Fusarium proliferatum, 5 days at 20° C., HPLC-MS/MS, read-out: % Inhibition der FB1 produktion bei 50 μM) of 100% and a pest or weed control at 500 ppm (Sphaerotheca fuliginea [3]) of 99%. For the same compound, the pest or weed control at 1000 ppm (Rhynchosporium secalis) was 90%, the pest or weed control at 250 ppm (Cochliobolus miyabeanus) was 90% and the inhibition at 50 µM (Fusarium graminearum [2]; [8]) was 100%. The inhibition at 50 µM (Fusarium graminearum [2]; [9]) was 100%, the pest or weed control at 500 ppm (Alternaria solani) was 93% and the chromatographic logP (physchem; LogPA) was 1.82. The pest or weed control at 1000 ppm (Fusarium graminearum [6]) was 100% and the “% Activity level” value (Pythium ultimum) was 88%.
For `c1cc(-c2cnn(C3CCCCO3)c2)ccn1` (stereo not shown) [[XII-1], 4-[1-(Tetrahydro-2H-pyran-2-yl)-1H-pyrazol-4-yl]pyridine], the chromatographic logP ([1]; pH 2.7) was 0.38.
